According to paper PMC11637191, “The pH-dependence of efflux ratios determined with bidirectional transport assays across cellular monolayers” (International Journal of Pharmaceutics: X, 2024):

Tests used:
[1] = no reference given; cited from earlier work
MDCK-II-MDR1 cells = conditions: intrinsic membrane permeability, calculated from Papp, A⟶B with elacridar
Procedure: Briefly, cells (passage 20–40) were seeded onto 12-well PET inserts (CellQART, Northeim, Germany; pore size: 0.4 μm; filter thickness: 11.5 μm, 100×10^6 pores/cm^2) at a density of 1.5×10^5 cells/insert. […] One day before the experiments, the cell medium was refreshed. For P0 determination, inserts were pre-incubated with the P-gp inhibitor elacridar (2 μM) for 30 min in HBSS pH 7.4. The transport rates in both directions of the test compounds were determined in duplicate or triplicate for 4–5 different pH values between pH 5 and pH 9. The transport buffer was HBSS buffered with 10 mM MES for pH 5 and 6, 25 mM HEPES for pH 7, 7.4 and 8, and 10 mM TAPS for pH 9. Stock solutions were prepared in the transport buffer and pre-warmed to 37 °C. Additional stock solutions with 2 μM elacridar were prepared at suitable pH values to measure P0 values in tandem. The pH of all buffer and stock solutions, as well as the pH of all samples after experiment completion, was controlled with a rapid pH automated pH meter (Hudson Robotics, Inc., Springfield, NJ, USA). Inserts were used in 12-well plates (TPP Techno Plastic Products AG, Trasadingen, Switzerland). […] Timestep length was determined individually for each compound and direction measured to ensure sink conditions. […]
to ensure that measured transport rates would not be affected by active efflux .

MDCK-MDR1 cells [2] = conditions: MDCK-MDR1, pH 7.4; cited from earlier work
in vitro = conditions: dog
P-gp (MDR1) [3] = experiment: in vitro; conditions: dog
MDCK-MDR1 cells [4] = conditions: dog, MDCK-MDR1, pH 7.4
P-gp (MDR1) [5] = experiment: in vitro; conditions: dog, MDCK-MDR1, Papp, B⟶A
[6] = Calculation of neutral fraction (fn); conditions: neutral fraction at pH 8

Q: For `COc1ccc2c(c1)c(CC(=O)O)c(C)n2C(=O)c1ccc(Cl)cc1` [Indomethacin], which logKhex/water [1] is on record?
A: 0.58

Q: Which LogP0 (MDCK-II-MDR1 cells) does the source give for `COc1cc2c(c(OC)c1OC)-c1ccc(OC)c(=O)cc1[C@@H](NC(C)=O)CC2` [Colchicine] here?
A: -5.9 P in cm/s

Q: What about the “Papp, B⟶A” value (MDCK-MDR1 cells [2]) of the same compound?
A: 119 nm/s

Q: What about the “Papp, inhibitor” value (MDCK-MDR1 cells [2]) of the same compound?
A: 16.4 nm/s

Q: And the recovery (in vitro; MDCK-MDR1, pH 5)?
A: 100 to 120%

Q: What about the recovery (in vitro; MDCK-MDR1, pH 6) of the same compound?
A: 78 to 109%

Q: What about the recovery (in vitro; MDCK-MDR1, pH 7) of the same compound?
A: 98 to 110%

Q: What about the recovery (in vitro; MDCK-MDR1, pH 8) of the same compound?
A: 96 to 102%

Q: And the recovery (in vitro; MDCK-MDR1, pH 9)?
A: 92 to 100%

Q: And the Papp (P-gp (MDR1) [3]; MDCK-MDR1, pH 5)?
A: 5.2 ± 1.5 nm/s

Q: What about the Papp B→A (P-gp (MDR1) [3]; MDCK-MDR1, pH 5) of the same compound?
A: 21.2 ± 1.4 nm/s

Q: And the Papp (P-gp (MDR1) [3]; MDCK-MDR1, pH 6)?
A: 2 ± 0.4 nm/s

Q: And the Papp B→A (P-gp (MDR1) [3]; MDCK-MDR1, pH 6)?
A: 44.2 ± 3.3 nm/s

Q: What about the Papp (P-gp (MDR1) [3]; MDCK-MDR1, pH 7) of the same compound?
A: 1.6 ± 0.4 nm/s

Q: What about the Papp B→A (P-gp (MDR1) [3]; MDCK-MDR1, pH 7) of the same compound?
A: 50.3 ± 5.8 nm/s

Q: And the Papp (P-gp (MDR1) [3]; MDCK-MDR1, pH 8)?
A: 2 ± 0.5 nm/s

Q: And the Papp B→A (P-gp (MDR1) [3]; MDCK-MDR1, pH 8)?
A: 63.3 ± 6.2 nm/s

Q: And the Papp (P-gp (MDR1) [3]; MDCK-MDR1, pH 9)?
A: 4.1 ± 0.6 nm/s

Q: And the Papp B→A (P-gp (MDR1) [3]; MDCK-MDR1, pH 9)?
A: 58.9 ± 11.4 nm/s

Q: And the Factor difference (MDCK-MDR1 cells [4])?
A: 7

Q: What about the Papp (P-gp (MDR1) [5]) of the same compound?
A: 63.3 nm/s

Q: And the fn [6]?
A: 100%
